Source: article PMC3404088, “Development of a Small D-Enantiomeric Alzheimer’s Amyloid-β Binding Peptide Ligand for Future In Vivo Imaging Applications” (PLoS ONE, 2012)

Columns and labels:
[1] = target: T1, Aβ1–42 fibrils (Homo sapiens, UniProt P05067); experiment: Surface plasmon resonance (Biacore 1000), semi-quantitative binding to immobilized Aβ1–42 fibrils; settings: 50 µg/ml, PBS pH 7.4
T1 construct: Aβ1–42 was dissolved in hexafluoroisopropanol (HFIP)
Experimental: Aβ1–42 was dissolved in hexafluoroisopropanol (HFIP). After overnight incubation, HFIP was removed by evaporation. The Aβ1–42 film was dissolved in PBS buffer pH 7.4 to a concentration of 1 mg/ml and incubated for 7 days at 37°C. For the measurements, a Biacore 1000 (GE Healthcare) instrument was used. Aβ1–42 fibrils (6800 RU) were immobilized on a CM5 sensorchip (GE Healthcare) via amine coupling. The running and sample buffer was PBS, pH 7.4. To allow comparison between the ACI-80 compounds, but to avoid potential over-interpretation of the data by fitting multiple k on and k off values for a yet undefined number of different binding sites, only two values have been taken for further evaluation. Response units achieved under identical injection conditions allow comparison of binding strengths of the compounds. Dissociation rates among the compounds have been compared by measuring the remaining response units 60 s after end of injection as a measure for dissociation (k off). All measurements have been carried out using the same flow cells with identical concentrations and injection conditions. ACI-80-Kϕ derivatives were injected as analytes in a concentration of 50 µg/ml at a flow rate of 5 µl/min for 2 minutes at ambient temperature. The data were evaluated using BiaEvaluation 4.1. The interactions between Aβ1–42 and ACI-80-Kϕ derivatives are given in resonance units (RU) and in % of ACI-80-Kϕ response units. […] Aβ1–42 fibrils were immobilized on a Biacore sensor-chip as described in the methods section, and the interactions of the ϕ-labeled ACI-80 derivatives were measured and compared with original ACI-80-Kϕ. […] Therefore we decided for semi-quantitative comparison between all compounds only. The maximal responses in resonance units (RU) of the ϕ-labeled ACI-80 derivatives during the analyte injection and the remaining response 60 s after injection end (as a semi-quantitative measure for the dissociation rate), have been related to the respective values obtained from identical concentrations of ACI-80-Kϕ in percent.

[2] = target: T2, Aβ1–42 monomers (Homo sapiens, UniProt P05067); experiment: ELISA, compound binding to Aβ1–42 peptide film (predominantly monomers); settings: 10 µg/ml compound; for binding value, binding Aβ1–42 monomers: optical density after pNPP incubation
T2 construct: Aβ1–42 peptide film was prepared from lyophilized powder (Bachem); purchased Bachem
Experimental: (§1) Aβ1–42 peptide film was prepared from lyophilized powder (Bachem). The powder was reconstituted in HFIP to a final concentration of 1 mM, sonicated for 15 min at room temperature (RT), agitated overnight (ON), and aliquoted into non-siliconized microcentrifuge tubes (12 µl corresponding to 55 µg). The HFIP was evaporated under a stream of argon. The resulting peptide film was vacuum dried for 10 min and stored at -80°C. For direct use as peptide film, an aliquot of Aβ1–42 peptide film was reconstituted with 0.54% dimethylsulphoxide (DMSO) in phosphate buffered saline (PBS) to obtain a final concentration of 10 µg/ml and then used for the ELISA as described below. To prepare fibrils, 55 µg aliquot of peptide film was dissolved in 55 µl of 50 mM Tris-HCl, pH 7.4 and incubated at 37°C for five days. Next, the sample was centrifuged (10’000 rpm for 5 min) and the pellet was diluted in 50 mM Tris-HCl, pH 7.4.
(§2) Aβ1–42 peptide preparations were diluted in 0.05 M bicarbonate-carbonate buffer pH 9.6, to the final concentration of 10 µg/ml and coated onto ELISA plates (MaxiSorp, Nunc). After blocking (PBS; 0.05% Tween; 1% BSA), plates were incubated with 2- or 3-fold dilutions of D-compounds (starting concentration: 10 µg/ml) and incubated for 2 h at 37°C. Plates were then washed and incubated for 2 h at 37°C with the detection antibody Rabbit-a-fluorescein isothiocyanate-AP (Sigma; 1∶10’000 dilution) followed by the incubation for 2.5 h at room temperature (RT) with 1 mg/ml of phosphatase substrate (pNPP, Sigma). The absorbance signal was read at 405 nm wavelength using a Tecan plate reader (Tecan Group Lt, Männedorf, Switzerland).
(§3) ELISA plates (MaxiSorp, Nunc) were coated with anti-Aβ antibody 6E10 (Covance) at a concentration of 5 µg/ml. Either monomeric Aβ1–42 peptide film (mainly monomeric) or Aβ1–42 fibrils, which were prepared as described above, were diluted in PBS to the final concentration 10 µg/ml and mixed with 10-fold dilutions of D-peptide compounds in Eppendorf tubes (starting concentration of D-peptide compounds: 10 µg/ml). The tubes were incubated for 2 h at 37°C. Next, samples were distributed onto the ELISA plate and kept for 2 h at 37°C. Plates were washed and incubated for 2 h at 37°C with the detection antibody Rabbit-a-fluorescein isothiocyanate-AP (Sigma; 1∶10′000 dilution) following the incubation overnight (ON) at RT with 1 mg/ml of phosphatase substrate (pNPP, Sigma). The absorbance signal was read at 405 nm wavelength using the Tecan plate reader (Tecan Group Ltd, Männedorf, Switzerland).
(§4) To verify the SPR results, ELISA was employed to assay the interaction of the ACI-80 derivatives ACI-80-Kϕ, ACI-81-Kϕ, ACI-82-Kϕ, ACI-83-Kϕ, ACI-84-Kϕ, ACI-85-Kϕ, ACI-86-Kϕ, ACI-87-Kϕ, [^19F]-ACI-87-Kϕ, ACI-88-Kϕ, [^19F]-ACI-88-Kϕ, ACI-89-Kϕ, [^19F]-ACI-89-Kϕ) with Aβ1–42 fibrils and Aβ peptide film in solution containing mostly monomers and smaller oligomers (Table 4). To avoid any bias by possible conformational influences the ELISA has been carried out in two versions, once with immobilized antibody and once with immobilized Aβ1–42 as described in the methods section. Both assays yielded similar results and confirmed each other. […] Panels A and B in Figure 2 show the results for binding to Aβ1–42 fibrils and panels C and D in Figure 2 show the results for binding to freshly prepared Aβ1–42 peptide film, which contains mostly monomeric Aβ. In Table 4, the performance of the peptides is expressed relative to that of ACI-80-Kϕ.

[3] = target: T1, Aβ1–42 fibrils; experiment: ELISA, compound binding to Aβ1–42 fibrils; settings: for binding value, binding Aβ1–42 fibrils: optical density after pNPP incubation
Experimental: as §1, §2, §3, §4

[4] = target: T3, Aβ plaques in brain sections of transgenic APP (V717I) x PS1 (A246E) mice (Homo sapiens, UniProt P05067); experiment: Ex vivo staining of mouse brain slices by FITC labeled compounds; settings: 0.01 mg/ml ϕ-labeled compound, 2 h; 10 µm cryostat sections; fluorescence microscopy
T3 construct: triple image overlay of respective stains reveal that the ϕ-compounds identify plaques; from tissue; host or cells: brain cryosections of APP (V717I) x PS1 (A246E) transgenic mice
Experimental: In vitro tissue section staining was performed according to previously described protocols with slight modifications. Mouse brains were obtained from male transgenic (tg) APP (London mutation V717l) x PS1 (A246E) mice aged 13–21 months and from female wild type (wt) mice aged 9–10 months. The mice were anesthetized and transcardially perfused with saline. The brains were removed and snap frozen. 10 µm thick sagittal cryostat sections through the whole mouse brain were produced and mounted onto glass slides. ϕ-labeled compounds were applied to investigate binding. Thus, the slides were thawed, washed in PBS and fixed in 4% paraformaldehyde (20 min at RT) just before incubation with ϕ-labeled compounds. One series of sections was treated only with fluorescent compounds (0.01 mg/ml, incubation time 2 h) while another series of sections were incubated with anti-Aβ antibody 6E10 at 1∶500 dilution (SIG-39320, Covance; final antibody concentration was 2 µg/ml) in addition to ϕ-labeled compounds (0.01 mg/ml). The slices were washed in PBS. The sections incubated with ϕ-labeled compound and 6E10 antibody were further incubated for 2 h at RT with Goat-anti-Mouse IgG1– AlexaFluor 555 (A21127, Invitrogen, 1∶1000 dilution) and washed with PBS. Finally, all sections were counterstained with 4’–6-Diamidino-2-phenylindole (DAPI, 32670, Sigma, incubation 5 min at RT) for the visualization of cell nuclei. The slides were mounted using Prolong Gold Antifade mounting medium (P36930, Invitrogen) and coverslipped.
The tissues were analyzed using a fluorescent Zeiss Axioscope 2 Plus microscope using the AxioVision 4 image analysis software.
A further series of slices was stained using a primary anti-fluorescein isothiocyanate antibody combined with alkaline phosphatase reaction for visualization of ϕ-labeled peptides. Briefly, the sections were treated with blocking solution (10% normal goat serum (NGS), 0.25% Triton X-100 in PBS for 1 h at RT) and incubated with primary antibody (rabbit-anti-FITC; Invitrogen) at a dilution of 1∶500. The sections were then washed and incubated for 2 h at RT with the secondary antibody goat-anti-rabbit-alkaline phosphatase (Sigma) at a dilution of 1∶100. After washing, the slides were incubated with BCIP/NBT substrate (Sigma) for 3 min, washed, dehydrated and mounted using Eukitt mounting medium.

[5] = value of one single experiment only
[6] = 10 µg/ml compound, value of one single experiment only

| Substance | SPR response as compared to ACI-80-Kϕ [1] | binding value, binding Aβ1–42 monomers [2, 5] | ELISA binding to Aβ1–42 [3] | binding value, binding Aβ1–42 fibrils [3, 6] | staining / recognition of Aβ plaques [4] | off-rate based on remaining response 60 s after injection end [1] | % binding relative to ACI-80-Kϕ, Aβ1–42 monomers ([2]; ACI-80-Kϕ = 100) | binding value, binding Aβ1–42 monomers ([2]; average of two or three experiments) | % binding relative to ACI-80-Kϕ, Aβ1–42 fibrils ([3]; 10 µg/ml compound, ACI-80-Kϕ = 100) | binding value, binding Aβ1–42 fibrils ([3]; 10 µg/ml compound, average of two or three experiments) |
| --- | --- | --- | --- | --- | --- | --- | --- | --- | --- | --- |
| QSHYRHISPAQKK[^19F]ϕ [[^19F]-ACI-87-Kϕ, fluorinated ϕ-labeled ACI-87] | decreased response in comparison to the compound without label | *0.86 | bound well to Aβ1–42 fibrils | *1.26 | readily recognized amyloid plaques |  |  |  |  |  |
| SHYRHISPAQKK[^19F]ϕ [[^19F]-ACI-88-Kϕ, fluorinated ϕ-labeled ACI-88] |  | *1.05 | bound well to Aβ1–42 fibrils | *1.76 | readily recognized amyloid plaques | slowest off-rate of all tested compounds |  |  |  |  |
| ZSHYRHISPAQVKϕ [ACI-81-Kϕ, ϕ-labeled ACI-80 derivative, Q1Z] | not significantly increased |  |  |  |  |  | 27% | 0.13 | 22% | 0.20 |
